For test [1], the system named is primary retinal capillary endothelial cells or bovine heart endothelial cells. Nature of the test: Endothelial cell proliferation inhibition assay. The test is classed as cell-based. The conditions noted are these: for IC50, inhibition of endothelial cell proliferation: endothelial cells with 20 ng/ml fibroblast growth factor, grown four days, cell count, average of 4 wells (FIG. 1); for IC50: same experiment, IC50 restated in nM; for potency of endothelial cell proliferation inhibition compared with PF-4: under identical conditions as PF-4. Here is the method:
Primary retinal capillary endothelial cell cultures were prepared in substantial accordance with the procedure described in Buzney et al., Retinal Vascular Endothelial Cells and Pericytes: Differential Growth Characteristics in vitro, Invest. Opthalmol. Visual Sci. 24: 470-483 (1983) and separated from contaminating cells as described in Voyta et al., Identification and Isolation of Endothelial Cells Based on their Increased Uptake of Acetylated-low density Lipoprotein, J. Cell Biol, 99: 2034-2040 (1981).
Alternatively, bovine heart endothelial cells were obtained (American Type Culture Collection; Rockville Md. 20852) for use in the assay. Irrespective of source, the endothelial cells were seeded into 24 well tissue culture plates at a cell density of 10,000 cells/well in Dulbecco's modified Eagle Medium (GIBCO; Grand Island, N.Y.) supplemented with 5% bovine serum albumin, 1% penicillin-streptomycin, 1% L-glutamine, and 20 ng/ml fibroblast growth factor. Immediately after seeding the cells, various amounts of PF-4 (Sigma Chemical Co.; St. Louis, Mo. 63178), MPF-4 , or CPF-4 (isolated as describe in the above examples) were added to individual growth wells. MPF-4 and CPF-4 were tested at final concentrations ranging from 0.001 to 1 μg/ml. For comparison, native PF-4 was tested over a range of 0.001 to 3 μg/ml, and supplemented medium alone served as the negative control. The endothelial cell cultures were allowed to grow for four days at 37° C., 5% CO2 in a humidified tissue culture incubator. The cultures were then harvested individually by trypsinization and counted using a Zm-Coulter Counter (Coulter Electronics. Inc.; Opa Locka Fla. 33054).
The results were plotted in FIG. 1, and each point on the graph represented the average of 4 data points; ie one growth well per data point.

Test [2] can be described thus: Heparin binding (heparin affinity chromatography). From the text: The eluted proteins are then contacted with a heparin affinity resin. The ordinarily skilled artisan will readily realize that this step is best achieved in a column chromatography mode. Heparin affinity columns are commercially available from some of the same vendors mentioned above. In this step, the molecules of interest, both MPF-4 or CPF-4, bind to the heparin column and are eluted using an increasing linear salt gradient. The preferred salt is NaCl, and the portion of the gradient that is preferably collected is the 0.1-2.0M portion. The more highly preferred portion of the gradient to collect is the 0.7-2.0M portion.
The C4-pool was further fractionated by heparin affinity chromatography on a Econo-pac™ 5 ml heparin-sepharose cartridge (Biorad, Richmond, Calif. 94804). The bound proteins were eluted by a linear gradient of 0 to 2.0M NaCl in phosphate buffer saline (PBS) at a flow rate of 2.0 ml/min. The proteins that eluted from the column were pooled into three fractions: (1) non-heparin binding (flow through), (2) low-affinity heparin binding (0 to 0.7M NACl), and (3) high-affinity heparin binding (0.7M to 2.0M NACl) fractions.

Three molecules from patent US5512550A, “Method for inhibiting angiogenesis with modified platelet factor-4 and cleaved platelet factor-4” (Eli Lilly and Company, priority 1995, dated 1996) can be followed below.

Positions of bridges follow the written chain, without caps; N, C: chain ends. Chains are numbered I, II in the order given. No end group written: not given here.

Consider “MPF-4: N-terminally processed form of human platelet factor-4, 54 C-terminal residues beginning with Ser-17, SEQ ID NO: 1 (SQVRPRHITSLEVIKAGPHCPTAQLIATLKNGRKICLDLQAPLYKKIIKKLLES)”, for which, in test [1], the “IC50, inhibition of endothelial cell proliferation” value (“IC50, inhibition” for short) lay in the range of 0.03 to 0.05 µg/mL; the IC50 was approximately 7 nM; the “potency of endothelial cell proliferation inhibition compared with PF-4” value is reported as “more potent inhibitors of endothelial cell proliferation”. Further, the heparin binding entry in test [2] is recorded as “bind heparin”.

Take “PF-4: Native platelet factor-4 (Sigma Chemical Co.), tested for comparison [reference compound]”: in test [1], the “IC50, inhibition” value was in the range of 0.8 to 1 µg/mL and the IC50 was approximately 130 nM.

B1: CPF-4: Proteolytically cleaved, non-reduced PF-4: 16-residue chain (SEQ ID NO: 2) disulfide bonded to 54-residue chain (SEQ ID NO: 1) (protein)
chain 1: EAEEDGDLQCLCVKTT
chain 2: SQVRPRHITSLEVIKAGPHCPTAQLIATLKNGRKICLDLQAPLYKKIIKKLLES
modifications: disulfide I:10-II:20, I:12-II:36; not fully specified
As to B1, in test [1], the “IC50, inhibition” value is “approximately 150 ng/ml”; the concentration for half-maximal inhibition (IC50) was approximately 20 nM; the “potency of endothelial cell proliferation inhibition compared with PF-4” value is given as “more potent inhibitors of endothelial cell proliferation”. In addition, the heparin binding result in test [2] was “bind heparin”.
